Results taken from patent US8362256B2, “Salts of N-[4-(1-cyanocyclopentyl)phenyl]-2-(4-pyridylmethyl)amino-3-pyridinecarboxamide” (Jiangsu Hengrui Medicine Co. Ltd., priority 2008, dated 2013).
Marks after values point to notes of the source that are not given here.

Tests used:
[1] = Solubility; format: physicochemical
[2] = in vivo; settings: male, Sprague-Dawley, rat, po; for MRT: MRT of compound A; for Tmax: Tmax of compound A
Source text: Male Sprague-Dawley (SD) rats (weight: about 250 g, experimental animal certification of fitness: 0006473) were purchased from Shanghai Slaccas experimental animals limited liability company (certification number: SCXK (Hu) 2003-0003). The relevant qualifications and state of health of the SD rats were checked first, and the eligible ones were placed into the clean grade chambers of rats in Shanghai institute of Materia Medica.
I. Analysis Condition of LC/MS/MS
Analysis Condition of Liquid Chromatography
Chromatographic column: Agilent Zorbax SB-C18 column (50 mm×2.1 mm ID);
Column temperature: 25° C.;
Mobile phase: A: H2O—CH3CN (2:98, v/v), B: H2O—CH3CN (10:90, v/v)
A: 25%+B: 75%, constant gradient elution;
Analysis time: 3 minutes.
The light circle was switched to 12/12 hour day/night in the clean grade chambers of rats. Humidity and temperature were 40-60% and 20-24° C., respectively. Every 4 rats were raised in a 36×24×19 cm^3 stainless rat cage. The rats took water freely and were fed special rat food regularly once daily. Only after one week adaption, the rats were used to conduct pharmacokinetics studies. 12 Sprague-Dawley rats were divided into 4 groups, 3 for each group.
The blood samples were collected 0 hour before the administration and 0.083, 0.25, 0.5, 1.0, 2, 4, 6, and 8 hours after the administration. The blood samples were collected at 250˜300 μL at each time point from posterior venous sinus of the eye after respiration anaesthesia with ether (the degree of anaesthesia was highly controlled). The blood was collected into test tubes containing heparin, and then was centrifuged to produce plasma. The obtained plasma was divided into 2 parts (50 μL for each part) and stored at −70° C. until analysis. […] After experiments, euthanasia was performed with CO2 gas.
Pharmacokinetics parameters of animal experiment of each group were calculated using InnaPhase Kinetica™ software (America).

[3] = system: human colon cancer HT-29; test: Efficacy on human colon cancer HT-29 transplanted in nude mice; settings: for Weight after Removing Tumor, d0 / TV x ± SD, d0: d0 baseline; for RTV x ± SD / T/C / TV x ± SD, dn: dn 21 days; for Weight after Removing Tumor, dn: dn 21 days after first administration
Experimental: BALB/cA-nude mice, ♀, 5-6 weeks-old, purchased from Shanghai Slaccas experimental animals limited liability company. […] Rearing environment: SPF grade.
After one week adaption, the experimental animals were subcutaneously inoculated with human colon cancer HT-29 tumor tissues. When the tumors grew to 100-300 mm^3, the animals were randomly divided into several groups. […] Volume of tumors and weight of mice were measured 2-3 times every week, the data of which were recorded. The equation for the calculation of volume of tumors (V) is: V=½×a×b^2 wherein a, b represent length and width, respectively.

[4] = Stability in different conditions, content by HPLC; format: physicochemical
[5] = target: KDR (Homo sapiens, UniProt P35968); test: ELISA tyrosine kinase inhibition; format: biochemical; settings: average of 3 experiments; read-out: IC50 ± SD, KDR
Experimental: (§1) Phosphorylation of substrate was determined with monoclonal antibody of anti-phosphorylation tyrosine (PY99). Goat anti-mouse IgG marked with HRP was then added, and the degree of phosphorylation of substrate was determined with OPD coloration. At the same time, the control group without tyrosine kinase and control wells of corresponding DMSO concentration were set up. 2 M of H2SO4 was added in 50 μl/well to terminate the reaction. Data was read with adjustable wavelength micro plate enzyme-labeling instrument VERSAmax (Sunnyvale, Calif., U.S.A.), followed by visualization reaction, OD490 nm value was then observed. […] Relative inhibition rate of drugs on tyrosine kinase protein was determined.

[6] = target: c-Kit (Homo sapiens, UniProt P10721); test: ELISA tyrosine kinase inhibition; format: biochemical; settings: average of 3 experiments; read-out: IC50 ± SD, c-Kit
Experimental: as §1

[7] = target: c-Src (Homo sapiens, UniProt P12931); test: ELISA tyrosine kinase inhibition; format: biochemical; settings: average of 3 experiments; read-out: IC50 ± SD, c-Src
Experimental: (§2) Phosphorylation of substrate was determined with monoclonal antibody of anti-phosphorylation tyrosine (PY99). Goat anti-mouse IgG marked with HRP was then added, and the degree of phosphorylation of substrate was determined with OPD coloration. At the same time, the control group without tyrosine kinase and control wells of corresponding DMSO concentration were set up. 2 M of H2SO4 was added in 50 μl/well to terminate the reaction. Data was read with adjustable wavelength micro plate enzyme-labeling instrument VERSAmax (Sunnyvale, Calif., U.S.A.), followed by visualization reaction, OD490 nm value was then observed.
(§3) Relative inhibition rate of drugs on tyrosine kinase protein was determined.

[8] = target: PDGFRβ (Homo sapiens, UniProt P09619); test: ELISA tyrosine kinase inhibition; format: biochemical; settings: average of 3 experiments; read-out: IC50 ± SD, PDGFRβ
Experimental: as §2, §3

[9] = target: ErbB2 (Homo sapiens, UniProt P04626); test: ELISA tyrosine kinase inhibition; format: biochemical
Experimental: as §2, §3

[10] = target: EGFR1 (Homo sapiens, UniProt P00533); test: ELISA tyrosine kinase inhibition; format: biochemical
Experimental: as §2, §3

[11] = target: Flt1 (Homo sapiens, UniProt P17948); test: ELISA tyrosine kinase inhibition; format: biochemical; settings: average of 3 experiments; read-out: IC50 ± SD, Flt1
Experimental: as §2, §3

[12] = target: FGFR1 (Homo sapiens, UniProt P11362); test: ELISA tyrosine kinase inhibition; format: biochemical
Experimental: as §2, §3

[13] = 50 mg/kg p.o. once daily d0-d20
[14] = 100 mg/kg p.o. once daily d0-d20
[15] = 200 mg/kg p.o. once daily d0-d20
[16] = concentration increased to 10^4 nM

Chain of FGFR1 (P11362 22-822, species assumed): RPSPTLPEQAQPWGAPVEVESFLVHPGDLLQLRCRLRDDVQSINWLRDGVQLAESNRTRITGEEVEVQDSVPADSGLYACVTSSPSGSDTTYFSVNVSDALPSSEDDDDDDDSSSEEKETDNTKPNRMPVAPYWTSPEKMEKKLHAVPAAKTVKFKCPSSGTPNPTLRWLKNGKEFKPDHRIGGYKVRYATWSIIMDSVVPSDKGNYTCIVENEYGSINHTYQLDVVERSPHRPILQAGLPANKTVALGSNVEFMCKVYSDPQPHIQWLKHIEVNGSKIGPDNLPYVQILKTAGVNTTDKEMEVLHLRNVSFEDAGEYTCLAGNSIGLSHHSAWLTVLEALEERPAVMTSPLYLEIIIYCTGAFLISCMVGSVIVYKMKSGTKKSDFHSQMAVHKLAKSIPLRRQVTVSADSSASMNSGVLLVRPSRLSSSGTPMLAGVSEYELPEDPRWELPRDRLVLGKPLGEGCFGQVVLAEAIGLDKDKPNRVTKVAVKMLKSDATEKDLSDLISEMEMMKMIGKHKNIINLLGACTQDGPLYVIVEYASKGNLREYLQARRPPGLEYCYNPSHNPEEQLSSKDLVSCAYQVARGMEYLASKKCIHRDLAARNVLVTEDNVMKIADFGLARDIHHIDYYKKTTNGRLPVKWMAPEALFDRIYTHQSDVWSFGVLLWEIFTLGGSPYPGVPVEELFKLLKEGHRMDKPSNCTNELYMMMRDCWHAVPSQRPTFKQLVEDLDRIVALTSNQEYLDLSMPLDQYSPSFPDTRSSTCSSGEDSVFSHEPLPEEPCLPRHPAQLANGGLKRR
Chain of EGFR1 (P00533 25-1210): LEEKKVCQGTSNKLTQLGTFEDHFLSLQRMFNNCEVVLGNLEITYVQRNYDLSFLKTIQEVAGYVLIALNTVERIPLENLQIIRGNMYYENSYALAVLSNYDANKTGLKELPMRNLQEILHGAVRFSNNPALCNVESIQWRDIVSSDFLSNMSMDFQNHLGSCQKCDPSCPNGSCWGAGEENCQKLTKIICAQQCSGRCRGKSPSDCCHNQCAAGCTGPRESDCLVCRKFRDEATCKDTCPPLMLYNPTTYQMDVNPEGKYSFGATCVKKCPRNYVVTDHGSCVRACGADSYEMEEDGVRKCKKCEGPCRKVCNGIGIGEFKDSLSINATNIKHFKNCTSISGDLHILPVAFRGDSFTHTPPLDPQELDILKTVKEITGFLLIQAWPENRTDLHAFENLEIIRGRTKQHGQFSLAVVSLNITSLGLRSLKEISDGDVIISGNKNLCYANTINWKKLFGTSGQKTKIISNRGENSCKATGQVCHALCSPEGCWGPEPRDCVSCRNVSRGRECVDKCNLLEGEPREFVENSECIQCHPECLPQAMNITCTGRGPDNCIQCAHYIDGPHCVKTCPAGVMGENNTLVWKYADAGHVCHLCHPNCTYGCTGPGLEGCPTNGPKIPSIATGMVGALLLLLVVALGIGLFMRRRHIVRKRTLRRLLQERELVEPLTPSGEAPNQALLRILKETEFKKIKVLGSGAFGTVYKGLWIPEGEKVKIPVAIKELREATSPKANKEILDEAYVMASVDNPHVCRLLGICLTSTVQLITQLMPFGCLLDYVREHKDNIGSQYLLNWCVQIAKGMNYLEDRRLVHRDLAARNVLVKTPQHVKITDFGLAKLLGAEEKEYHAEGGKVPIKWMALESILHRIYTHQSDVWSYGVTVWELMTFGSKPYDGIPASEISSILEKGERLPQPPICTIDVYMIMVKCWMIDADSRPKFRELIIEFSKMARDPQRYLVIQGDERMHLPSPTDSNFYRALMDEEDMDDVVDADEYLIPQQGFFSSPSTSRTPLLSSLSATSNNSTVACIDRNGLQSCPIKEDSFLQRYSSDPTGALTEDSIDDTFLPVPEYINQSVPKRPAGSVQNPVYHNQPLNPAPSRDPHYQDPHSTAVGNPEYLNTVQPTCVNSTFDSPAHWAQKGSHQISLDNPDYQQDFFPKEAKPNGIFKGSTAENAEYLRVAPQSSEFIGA
Chain of ErbB2 (P04626 23-1255, species assumed): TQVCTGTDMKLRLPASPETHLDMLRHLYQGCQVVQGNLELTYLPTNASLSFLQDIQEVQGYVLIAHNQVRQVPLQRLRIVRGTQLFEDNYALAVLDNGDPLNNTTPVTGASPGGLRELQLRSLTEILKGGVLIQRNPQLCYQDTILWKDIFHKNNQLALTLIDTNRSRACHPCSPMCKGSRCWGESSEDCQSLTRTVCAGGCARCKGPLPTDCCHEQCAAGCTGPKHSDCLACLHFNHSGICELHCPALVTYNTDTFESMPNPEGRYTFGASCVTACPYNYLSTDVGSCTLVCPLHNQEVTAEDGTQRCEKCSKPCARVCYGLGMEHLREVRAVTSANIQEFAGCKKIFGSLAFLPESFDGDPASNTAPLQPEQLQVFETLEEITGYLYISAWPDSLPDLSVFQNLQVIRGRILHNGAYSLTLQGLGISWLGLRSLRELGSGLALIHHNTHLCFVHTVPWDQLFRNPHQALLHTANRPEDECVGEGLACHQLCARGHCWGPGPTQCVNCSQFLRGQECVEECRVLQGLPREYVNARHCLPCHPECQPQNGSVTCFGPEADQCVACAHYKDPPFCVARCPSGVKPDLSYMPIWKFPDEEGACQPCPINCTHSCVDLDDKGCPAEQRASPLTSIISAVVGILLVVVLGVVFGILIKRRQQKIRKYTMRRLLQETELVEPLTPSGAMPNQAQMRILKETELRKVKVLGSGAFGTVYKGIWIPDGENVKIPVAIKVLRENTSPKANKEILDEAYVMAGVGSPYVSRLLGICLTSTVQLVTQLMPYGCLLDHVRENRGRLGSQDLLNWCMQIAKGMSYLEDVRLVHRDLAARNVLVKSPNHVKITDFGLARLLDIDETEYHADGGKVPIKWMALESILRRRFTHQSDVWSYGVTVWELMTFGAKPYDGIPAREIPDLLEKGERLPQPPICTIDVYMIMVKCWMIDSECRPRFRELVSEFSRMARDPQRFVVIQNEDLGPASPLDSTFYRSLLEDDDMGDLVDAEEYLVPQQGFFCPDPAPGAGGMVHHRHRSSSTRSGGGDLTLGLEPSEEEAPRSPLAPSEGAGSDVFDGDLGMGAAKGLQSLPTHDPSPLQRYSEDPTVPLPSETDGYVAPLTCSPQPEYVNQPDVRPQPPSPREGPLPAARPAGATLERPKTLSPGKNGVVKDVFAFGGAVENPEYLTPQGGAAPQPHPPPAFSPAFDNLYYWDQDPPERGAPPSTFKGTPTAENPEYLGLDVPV
Chain of Flt1 (P17948 27-1338, species assumed): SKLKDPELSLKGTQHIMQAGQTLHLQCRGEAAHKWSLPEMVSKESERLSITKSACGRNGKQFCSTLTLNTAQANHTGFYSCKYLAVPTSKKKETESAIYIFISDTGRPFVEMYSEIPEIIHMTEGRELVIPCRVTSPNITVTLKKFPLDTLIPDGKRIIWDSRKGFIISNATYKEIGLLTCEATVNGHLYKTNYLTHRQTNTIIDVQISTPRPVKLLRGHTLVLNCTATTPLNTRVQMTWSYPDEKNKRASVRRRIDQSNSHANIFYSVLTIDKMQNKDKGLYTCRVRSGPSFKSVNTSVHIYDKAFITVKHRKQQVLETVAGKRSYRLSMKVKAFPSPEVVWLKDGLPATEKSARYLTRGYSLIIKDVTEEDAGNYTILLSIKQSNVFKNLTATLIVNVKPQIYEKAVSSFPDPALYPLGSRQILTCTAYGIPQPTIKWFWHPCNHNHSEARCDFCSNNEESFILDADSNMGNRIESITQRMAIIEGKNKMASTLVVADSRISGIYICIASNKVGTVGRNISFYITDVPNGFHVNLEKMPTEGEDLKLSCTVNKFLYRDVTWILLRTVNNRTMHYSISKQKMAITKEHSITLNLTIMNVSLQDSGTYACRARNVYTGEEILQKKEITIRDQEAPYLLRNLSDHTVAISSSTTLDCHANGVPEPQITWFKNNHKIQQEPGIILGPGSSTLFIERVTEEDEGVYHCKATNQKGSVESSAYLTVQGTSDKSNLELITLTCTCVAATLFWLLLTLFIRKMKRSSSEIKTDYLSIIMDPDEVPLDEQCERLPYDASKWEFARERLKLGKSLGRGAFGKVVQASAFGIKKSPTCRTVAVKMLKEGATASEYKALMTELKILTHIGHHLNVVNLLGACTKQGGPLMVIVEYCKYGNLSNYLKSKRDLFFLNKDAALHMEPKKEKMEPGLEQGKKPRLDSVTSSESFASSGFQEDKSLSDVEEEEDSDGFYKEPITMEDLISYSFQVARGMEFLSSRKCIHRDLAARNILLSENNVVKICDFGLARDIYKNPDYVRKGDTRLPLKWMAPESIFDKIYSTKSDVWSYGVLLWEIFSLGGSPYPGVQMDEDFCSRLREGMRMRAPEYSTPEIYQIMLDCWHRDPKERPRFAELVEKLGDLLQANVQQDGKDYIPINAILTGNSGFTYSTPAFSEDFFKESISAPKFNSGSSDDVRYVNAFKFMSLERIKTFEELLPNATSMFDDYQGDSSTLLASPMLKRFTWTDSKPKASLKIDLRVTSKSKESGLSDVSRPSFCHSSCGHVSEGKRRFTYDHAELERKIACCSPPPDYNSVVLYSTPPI
Chain of c-Src (P12931 whole entry, species assumed): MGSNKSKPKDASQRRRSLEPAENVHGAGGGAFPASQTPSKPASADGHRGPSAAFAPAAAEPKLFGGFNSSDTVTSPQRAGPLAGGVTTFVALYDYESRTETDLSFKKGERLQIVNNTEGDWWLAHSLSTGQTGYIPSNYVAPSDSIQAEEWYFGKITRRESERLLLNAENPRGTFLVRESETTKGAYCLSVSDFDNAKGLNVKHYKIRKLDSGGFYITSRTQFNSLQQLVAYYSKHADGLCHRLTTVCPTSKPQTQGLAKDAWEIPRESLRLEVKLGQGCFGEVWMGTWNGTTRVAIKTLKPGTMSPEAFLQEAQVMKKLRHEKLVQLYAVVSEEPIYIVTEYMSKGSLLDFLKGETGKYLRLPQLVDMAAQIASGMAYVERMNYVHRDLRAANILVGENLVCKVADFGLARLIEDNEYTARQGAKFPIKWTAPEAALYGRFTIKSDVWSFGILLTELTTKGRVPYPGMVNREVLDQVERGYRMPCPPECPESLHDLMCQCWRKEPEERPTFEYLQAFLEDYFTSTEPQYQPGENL

N#CC1(c2ccc(NC(=O)c3cccnc3NCc3ccncc3)cc2)CCCC1 [Mesylate of compound A]
Solubility in water [1]: Insoluble
AUC(0-t) ([2]; 1 mmol/kg, AUC0→8 h Mol dose): 17200 ± 6980 ng·h/mL
AUC(0-t) ([2]; 20 mg/kg, AUC0→8 h of compound A, Mean ± SD): 697 ± 283 ng·h/mL
concentration at 0 h ([2]; 20 mg/kg, Blood Concentration of compound A, 0 h): 0 ng/mL
concentration at 4 h ([2]; 20 mg/kg, Blood Concentration of compound A, 4 h): 30.5 ng/mL
concentration at 8 h ([2]; 20 mg/kg, Blood Concentration of compound A, 8 h): 29.9 ng/mL
Cmax ([2]; 20 mg/kg, Cmax of compound A, Mean ± SD): 489 ± 296 ng/mL
MRT ([2]; 20 mg/kg): 70.8 min
MRT ([2]; 20 mg/kg, Mean ± SD): 98.4 ± 28.8 min
half-life ([2]; 20 mg/kg, T1/2 of compound A, Mean ± SD): 52.2 ± 23.4 min
Tmax ([2]; 20 mg/kg): 15 min
Tmax ([2]; 20 mg/kg, Mean ± SD): 19.8 ± 8.4 min
Weight after Removing Tumor, d0 [3, 13]: 16.1 g
RTV x ± SD [3, 13]: 5.42 ± 1.55
T/C [3, 13]: 62.5%
TV x ± SD, dn [3, 13]: 1250 ± 256
Weight after Removing Tumor, dn [3, 13]: 14.3 g
TV x ± SD, d0 ([3]; 50 mg/kg p.o.): 239 ± 49
Weight after Removing Tumor, d0 [3, 14]: 17.0 g
RTV x ± SD [3, 14]: 3.78 ± 1.46
T/C [3, 14]: 43.6^a %
TV x ± SD, dn [3, 14]: 998 ± 296
Weight after Removing Tumor, dn [3, 14]: 16.4 g
TV x ± SD, d0 ([3]; 100 mg/kg p.o.): 272 ± 37
Weight after Removing Tumor, d0 [3, 15]: 16.3 g
RTV x ± SD [3, 15]: 2.21 ± 0.52
T/C [3, 15]: 25.5^a %
TV x ± SD, dn [3, 15]: 571 ± 147
Weight after Removing Tumor, dn [3, 15]: 15.6 g
T/C ([3]; 200 mg/kg p.o. once daily d0-d20, listed as mesylate of compound A): 25.5%
TV x ± SD, d0 ([3]; 200 mg/kg p.o.): 260 ± 39
tolerance ([3]; mouse, in vivo, po): well tolerated
stability (conclusion of stability experiments) [4]: most stable
content after 6 Months Under Light ([4]; HPLC, initial purity 99.6%): 99.5%
content after 6 Months at 60° C. ([4]; HPLC, initial purity 99.6%): 98.4%
content after 6 Months at Room Temperature ([4]; HPLC, initial purity 99.6%): 99.5%
IC50 [5]: 2.43 nM
IC50 [6]: 420 nM
IC50 [7]: 349 nM
IC50 [8]: 537 nM
IC50 ([9]; average of 3 experiments, read-out: IC50 ± SD, ErbB2): > 10000 nM
inhibition on ErbB2 [9, 16]: no inhibition
IC50 ([10]; average of 3 experiments, read-out: IC50 ± SD, EGFR1): > 10000 nM
inhibition on EGFR1 [10, 16]: no inhibition
IC50 [11]: 70.1 nM
IC50 ([12]; average of 3 experiments, read-out: IC50 ± SD, FGFR1): > 10000 nM
inhibition on FGFR1 [12, 16]: no inhibition
